# Measured values taken from US20100240924A1, “2-ETHYL-4,6-DIMETHYL-PHENYL-SUBSTITUTED TETRAMIC ACID DERIVATIVES AS PEST CONTROL AGENTS AND/OR HERBICIDES” (BAYER CROPSCIENCE AG, priority 2003, published 2010).
# What was measured:
# Avena sativa = assay: Herbicidal post-emergence action (Example A, greenhouse); format: in vivo; settings: 320 g of a.i./ha
# Procedure: (§1) Seeds of monocotyledonous and dicotyledonous weed and crop plants are placed into sandy loam in wood fibre pots, covered with soil and cultivated in a greenhouse under good growth conditions. 2-3 weeks after sowing, the test plants are treated at the one-leaf stage. The test compounds, formulated as wettable powders (WP), are, in various dosages with a water application rate of. 600 l/ha (converted), with 0.2% of wetting agent added, sprayed onto the green parts of the plants. After the test plants were kept in the greenhouse under optimum growth conditions for about 3 weeks, the effect of the preparations is rated visually in comparison to untreated controls (herbicidal effect in percent (%): 100% effect=the plants have died, 0% effect=like control plants).
# Lolium = assay: as above; format: in vivo; settings: 320 g of a.i./ha
# Procedure: as §1
# Setaria = assay: as above; format: in vivo; settings: 320 g of a.i./ha
# Procedure: as §1
# Sinapis = assay: as above; format: in vivo; settings: 320 g of a.i./ha, rated visually after about 3 weeks
# Procedure: as §1
# Stellaria = assay: as above; format: in vivo; settings: 320 g of a.i./ha, rated visually after about 3 weeks
# Procedure: as §1
# [1] = test system: larvae of the mustard beetle (Phaedon cochleariae); assay: Phaedon test (spray treatment); format: in vivo; settings: 500 g/ha, spray treatment of Chinese cabbage discs
# Procedure: [table] To produce a suitable preparation of active compound, 1 part by weight of active compound is mixed with the stated amounts of solvents and emulsifier, and the concentrate is diluted with emulsifier-containing water to the desired concentration. Discs of Chinese cabbage (Brassica pekinensis) are sprayed with a preparation of active compound of the desired concentration and, after they have dried, populated with larvae of the mustard beetle (Phaedon cochleariae).
# [2] = test system: greenhouse red spider mite (Tetranychus urticae); assay: Tetranychus test (OP-resistant/spray treatment); format: in vivo; settings: 100 g/ha, OP-resistant, spray treatment of bean leaf discs
# Procedure: To produce a suitable preparation of active compound, 1 part by weight of active compound is mixed with the stated amounts of solvents and emulsifier, and the concentrate is diluted with emulsifier-containing water to the desired concentration.
# Discs of bean leaves (Phaseolus vulgaris) which are infested by all stages of the greenhouse red spider mite (Tetranychus urticae) are sprayed with a preparation of active compound of the desired concentration.
# After the desired period of time, the activity in % is determined. 100% means that all spider mites have been killed; 0% means that none of the spider mites have been killed.
# Summer barley = assay: Herbicidal post-emergence action, use of safeners, vessel trials with cereals in the greenhouse (Example B); settings: in vivo
# Procedure: (§2) Seeds of monocotyledonous and dicotyledonous weed and crop plants are placed into sandy loam in wood fibre pots or in plastic pots, covered with soil and cultivated in a greenhouse, during the vegetation period also outdoors outside of the greenhouse, under good growth conditions. 2-3 weeks after sowing, the test plants are treated at the one- to three-leaf stage. The test compounds, formulated as wettable powders (WP) or emulsifiable concentrates (EC) are, in various dosages with a water application rate of 300 l/ha (converted), with wetting agent (0.2 to 0.3%) added, sprayed onto the plants and the surface of the soil. 3-4 weeks after the treatment of the test plants, the effect of the preparations is rated visually in comparison to untreated controls (herbicidal effect in percent (%): 100% effect=the plants have died, 0% effect=like control plants). […]
# Summer wheat = assay: as above; settings: in vivo
# Procedure: as §2
# [3] = rated visually after about 3 weeks
# [4] = rated visually after about 3 weeks (second table)
Compound,"herbicidal effect in percent, Avena sativa (Avena sativa; [3]) [%]","herbicidal effect in percent, Lolium (Lolium; [3]) [%]","herbicidal effect in percent, Setaria (Setaria; [3]) [%]","herbicidal effect in percent, Avena sativa (Avena sativa; [4]) [%]","herbicidal effect in percent, Lolium (Lolium; [4]) [%]","herbicidal effect in percent, Setaria (Setaria; [4]) [%]","herbicidal effect in percent, Sinapis (Sinapis) [%]",further results
CCc1cc(C)cc(C)c1C1=C(O)C(C)N(CC)C1=O (centres unmarked) [Example I-a-1],80,100,90,,,,,
CCc1cc(C)cc(C)c1C1=C(OC(=O)C(C)C)C(C)(C)NC1=O [Example I-b-2],,,,100,100,100,70,"herbicidal effect in percent, Stellaria (Stellaria): 80%"
CCc1cc(C)cc(C)c1C1=C(OC(=O)C(C)C)C(C)(C2CC2)NC1=O (centres unmarked) [Example I-b-10],,,,,,,,Kill rate in % after 5 d [1]: 100%; Kill rate in % after 5 d [2]: 90%
CCc1cc(C)cc(C)c1C1=C(OC(=O)C(C)C)C(CC)(CC)NC1=O [Example I-b-18],,,,,,,,Kill rate in % after 5 d [1]: 100%; Kill rate in % after 5 d [2]: 100%
CCOC(=O)OC1=C(c2c(C)cc(C)cc2CC)C(=O)N(CC)C1C (centres unmarked) [Example I-c-1],90,100,100,,,,,
CCOC(=O)OC1=C(c2c(C)cc(C)cc2CC)C(=O)NC1(C)C(C)C (centres unmarked) [Example I-c-3],90,100,90,,,,,
CCc1cc(C)cc(C)c1C1=C(O)CN(C2CC2)C1=O [I-a-3],,,,80,100,90,70,
CCc1cc(C)cc(C)c1C1=C(O)C(C)(C(C)C)NC1=O (centres unmarked) [I-a′-2],,,,,,,,Summer barley observed (%) (Summer barley): 20%; Summer wheat observed (%) (Summer wheat): 25%
CCc1cc(C)cc(C)c1C1=C(OC(=O)C(C)(C)C)C(C)(C(C)C)NC1=O (centres unmarked) [I-b-3],90,70,80,,,,,
CCOC(=O)OC1=C(c2c(C)cc(C)cc2CC)C(=O)NC1(C)C [I-c-2],,,,100,100,100,70,"herbicidal effect in percent, Stellaria (Stellaria): 70%"
